Reference: PubChem BioAssay AID270 (DTP/NCI, 2004)
Where “and” joins values, the source holds several entries; their conditions need not be identical. Equal entries are not always repeated. Results filed as inconclusive are left out. *1 amine or outer side, *2 acyl side, *3 side chain or, on linkers, in order; H or OH if unused. Where a SMILES comes first, the peptide text is derived from it. Bridges are numbered along the chain shown (N, C = ends). Roman numbers before positions name the chains, in order. [ ]: non-standard residue; d: D form. Actinocin(9to1) = Cc1c2oc3c(C)ccc(C(=O)[*:1])c3nc-2c(C(=O)[*:2])c(N)c1=O; aThr = C[C@H](O)[C@H](N)C(=O)O; NMeV = CN[C@H](C(=O)O)C(C)C; Sar = CNCC(=O)O

System: BDF1 mice, s.c. Lewis lung carcinoma, T/C %
Assay: NCI In Vivo Anticancer Drug Screen. Data for tumor model Lewis Lung Carcinoma (subcutaneous) in B6D2F1 (BDF1) mice
In short: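 Tumor-bearing mice were treated with test compound, and either survival or tumor size was recorded. Values are the treated-group measurement divided by that of the vehicle-treated control group.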

[1] = endpoint: median survival time, dose: 0.5 mg/kg/injection, schedule: Q01DX009 (ip), vehicle: Klucel (hydroxypropylcellulose) (HPC), higher = longer survival

**Q.** CC(O)CC1CCCN1C (configuration not stated) was tested. Which T/C (endpoint: mean tumor weight, dose: 50.0 mg/kg/injection, schedule: Q01DX011 (ip), vehicle: saline, higher = larger tumour) did it give?
**A.** 208 % of control

**Q.** What about the T/C (endpoint: mean tumor weight, dose: 100.0 mg/kg/injection, schedule: Q01DX011 (ip), vehicle: saline, higher = larger tumour) of the same molecule?
**A.** 103 % of control

**Q.** And the T/C (endpoint: mean tumor weight, dose: 200.0 mg/kg/injection, schedule: Q01DX011 (ip), vehicle: saline, higher = larger tumour)?
**A.** 179 % of control

**Q.** C/C=C1\CN(C)[C@H]2Cc3c([nH]c4ccccc34)[C@@H](c3cc4[nH]c5c(c4cc3OC)CCN3C[C@H]4C[C@H](CC)[C@H]3[C@@]5(C(=O)OC)C4)C[C@H]1C2C(=O)OC (some centres not stated) was tested. Which T/C (endpoint: mean tumor weight, dose: 18.0 mg/kg/injection, schedule: Q01DX011 (ip), vehicle: water, higher = larger tumour) did it give?
**A.** 66 % of control

**Q.** And the T/C (endpoint: mean tumor weight, dose: 27.0 mg/kg/injection, schedule: Q01DX011 (ip), vehicle: water, higher = larger tumour)?
**A.** 81 % of control

**Q.** What about the T/C (endpoint: mean tumor weight, dose: 40.0 mg/kg/injection, schedule: Q01DX011 (ip), vehicle: water, higher = larger tumour) of the same molecule?
**A.** 62 % of control

**Q.** Which results are given for COc1ccccc1NC(=O)CSC(N)=O?
**A.** T/C (endpoint: mean tumor weight, dose: 125.0 mg/kg/injection, schedule: Q01DX011 (ip), vehicle: carboxymethylcellulose (CMC), higher = larger tumour): 97 % of control; T/C (endpoint: mean tumor weight, dose: 250.0 mg/kg/injection, schedule: Q01DX011 (ip), vehicle: carboxymethylcellulose (CMC), higher = larger tumour): 47 % of control

**Q.** Nc1nc(=S)c2[nH]cnc2[nH]1 was tested. Which T/C [1] did it give?
**A.** 108 % of control

**Q.** What about the T/C (endpoint: median survival time, dose: 1.0 mg/kg/injection, schedule: Q01DX009 (ip), vehicle: Klucel (hydroxypropylcellulose) (HPC), higher = longer survival) of the same molecule?
**A.** 117 % of control

**Q.** What about the T/C (endpoint: median tumor weight (est.), dose: 0.67 mg/kg/injection, schedule: Q01DX011 (ip), vehicle: alkali diluted with saline, higher = larger tumour) of the same molecule?
**A.** 80 % of control

**Q.** And the T/C (endpoint: median tumor weight (est.), dose: 1.0 mg/kg/injection, schedule: Q01DX011 (ip), vehicle: alkali diluted with saline, higher = larger tumour)?
**A.** 24 % of control

**Q.** Which results are given for CC(C)n1c2c([n+](C)c1/C=C/c1ccccc1)C(=O)c1ccccc1C2=O?
**A.** T/C (endpoint: median survival time, dose: 0.5 mg/kg/injection, schedule: Q01DX009 (ip), vehicle: saline, higher = longer survival): 96 % of control; T/C (endpoint: median survival time, dose: 1.0 mg/kg/injection, schedule: Q01DX009 (ip), vehicle: saline, higher = longer survival): 110 % of control

**Q.** For Clc1ccc(C(c2ccccc2Cl)C(Cl)Cl)cc1 (configuration not stated), which T/C (endpoint: mean tumor weight, dose: 62.5 mg/kg/injection, schedule: Q01DX011 (sc), vehicle: steriod suspending solution, higher = larger tumour) is on record?
**A.** 98 % of control

**Q.** What about the T/C (endpoint: mean tumor weight, dose: 125.0 mg/kg/injection, schedule: Q01DX011 (sc), vehicle: steriod suspending solution, higher = larger tumour) of the same molecule?
**A.** 113 % of control

**Q.** And the T/C (endpoint: mean tumor weight, dose: 250.0 mg/kg/injection, schedule: Q01DX011 (sc), vehicle: steriod suspending solution, higher = larger tumour)?
**A.** 84 % of control

**Q.** And the T/C (endpoint: mean tumor weight, dose: 500.0 mg/kg/injection, schedule: Q01DX011 (sc), vehicle: steriod suspending solution, higher = larger tumour)?
**A.** 99 % of control

**Q.** How did the T/C (endpoint: mean tumor weight, dose: 0.03 mg/kg/injection, schedule: Q01DX011 (ip), vehicle: saline, higher = larger tumour) turn out when Cc1c2oc3c(C)ccc(C(=O)N[C@@H]4C(=O)N[C@H](C(C)C)C(=O)N5CCC[C@H]5C(=O)N(C)CC(=O)N(C)[C@@H](C(C)C)C(=O)O[C@H]4C)c3nc-2c(C(=O)N[C@@H]2C(=O)N[C@H](C(C)C)C(=O)N3CCC[C@H]3C(=O)N(C)CC(=O)N(C)[C@@H](C(C)C)C(=O)O[C@H]2C)c(N)c1=O (I: [aThr][dV]P[Sar][NMeV] / II: [aThr][dV]P[Sar][NMeV]; ester I:1-I:C, II:1-II:C; linker I:N-II:N via Actinocin(9to1)) was run?
**A.** 89 % of control

**Q.** And the T/C (endpoint: mean tumor weight, dose: 0.05 mg/kg/injection, schedule: Q01DX011 (ip), vehicle: saline, higher = larger tumour)?
**A.** 55 % of control

**Q.** And the T/C (endpoint: mean tumor weight, dose: 12.0 micrograms/kg/injection, schedule: Q01DX011 (ip), vehicle: other, higher = larger tumour)?
**A.** 122 % of control

**Q.** What about the T/C (endpoint: mean tumor weight, dose: 25.0 micrograms/kg/injection, schedule: Q01DX011 (ip), vehicle: other, higher = larger tumour) of the same molecule?
**A.** 95 % of control and 98 % of control

**Q.** And the T/C (endpoint: mean tumor weight, dose: 50.0 micrograms/kg/injection, schedule: Q01DX011 (ip), vehicle: other, higher = larger tumour)?
**A.** 42 % of control and 49 % of control

**Q.** What about the T/C (endpoint: median survival time, dose: 12.5 micrograms/kg/injection, schedule: Q01DX009 (ip), vehicle: saline, higher = longer survival) of the same molecule?
**A.** 98 % of control and 122 % of control

**Q.** And the T/C (endpoint: median survival time, dose: 12.5 micrograms/kg/injection, schedule: Q01DX009 (ip), vehicle: water, higher = longer survival)?
**A.** 112 % of control

**Q.** And the T/C (endpoint: median survival time, dose: 13.0 micrograms/kg/injection, schedule: Q01DX009 (ip), vehicle: saline, higher = longer survival)?
**A.** 116 % of control

**Q.** What about the T/C (endpoint: median survival time, dose: 25.0 micrograms/kg/injection, schedule: Q01DX009 (ip), vehicle: water, higher = longer survival) of the same molecule?
**A.** 120 % of control

**Q.** And the T/C (endpoint: median survival time, dose: 50.0 micrograms/kg/injection, schedule: Q01DX009 (ip), vehicle: water, higher = longer survival)?
**A.** 102 % of control

**Q.** And the T/C (endpoint: median survival time, dose: 75.0 micrograms/kg/injection, schedule: Q04DX003 (ip), vehicle: water, higher = longer survival)?
**A.** 153 % of control

**Q.** What about the T/C (endpoint: median survival time, dose: 150.0 micrograms/kg/injection, schedule: Q04DX003 (ip), vehicle: water, higher = longer survival) of the same molecule?
**A.** 105 % of control

**Q.** What about the T/C (endpoint: median tumor weight (est.), dose: 12.0 micrograms/kg/injection, schedule: Q01DX009 (ip), vehicle: saline, higher = larger tumour) of the same molecule?
**A.** 88 % of control

**Q.** And the T/C (endpoint: median tumor weight (est.), dose: 25.0 micrograms/kg/injection, schedule: Q01DX009 (ip), vehicle: saline, higher = larger tumour)?
**A.** 98 % of control

**Q.** And the T/C (endpoint: median tumor weight (est.), dose: 50.0 micrograms/kg/injection, schedule: Q01DX009 (ip), vehicle: saline, higher = larger tumour)?
**A.** 70 % of control

**Q.** And the T/C (endpoint: median tumor weight (est.), dose: 100.0 micrograms/kg/injection, schedule: Q01DX009 (ip), vehicle: saline, higher = larger tumour)?
**A.** 51 % of control

**Q.** What does the source list for COc1c(Cl)cc2c(c1OC)N(C)C1N3C(=O)C4(C)SSC3(C(=O)N4C)C(O)C21O (configuration not stated)?
**A.** T/C (endpoint: median survival time, dose: 0.12 mg/kg/injection, schedule: Q01DX009 (ip), vehicle: Klucel (hydroxypropylcellulose) (HPC), higher = longer survival): 96 % of control; T/C (endpoint: median survival time, dose: 0.25 mg/kg/injection, schedule: Q01DX009 (ip), vehicle: Klucel (hydroxypropylcellulose) (HPC), higher = longer survival): 94 % of control; T/C [1]: 96 % of control
